Values quoted from earlier work, collected in patent US8048906B2, “Optically pure and enriched isomers of chelating ligands and contrast agents” (Catalyst Medical, priority 2003, dated 2011).

Conditions: binds to HA; peptide isolated from a random 12-mer phage peptide library (Mummert et al., J. Exp. Med. 2000)

For GAHWQFNALTVR, the Kd is listed as roughly 1 µM.
